{"source": "patent US4473583A", "about": "“Compositions containing certain derivatives of 4-phenyl-4-oxobuten-2-oic acid and methods of treatment using them” (Roussel UCLAF, priority 1981, dated 1984)", "key": {"[1]": {"test_system": "total acidity of the gastric secretions", "assay": "anti-gastric secretion activity (pylorus ligation, Shay technique)", "format": "in vivo", "details": "male rats, pylorus ligated, 10 mg/kg intraduodenally, 3 hours", "experimental": "(1) Determination of the anti-gastric secretion activity\nThe technique used is described by H. SHAY et al. in Gastroenterology 5, 43, 1945.\nMale rats were used having a weight of about 200 g (10 animals per lot), and were kept without food for 48 hours but allowed a 8% gluclose solution ad libitum. After the rats were slightly anesthetized with ether, the pylorus of each was ligated. After the end of the operation, the product to be tested in different doses or, in the case of the control animals a solution of 0.5% carboxymethyl cellulose, was administered intraduodenally, after which the abdominal incision sutured.\nThree hours later, the animals were sacrified and their stomachs removed after ligating the esophagus. The gastric juice was removed and centrifuged. The volume of gastric juice obtained was then determined and the total acidity of the gastric juice was obtained by titrating a 100 μl sample of gastric juice to a pH of 7 by means of 1/10 N sodium hydroxide solution.\nThe percentages of the variation of the total acidity of the gastric secretions, between test animals and control animals were calculated and are set forth in the table appearing below."}, "acute toxicity (LD50)": {"assay": "acute toxicity (LD50)", "details": "mouse, in vivo; mice, oral", "experimental": "(3) Determination of the Acute Toxicity\nThe LD50 was evaluated after the administration of the products orally to mice."}, "stomach ulcers": {"test_system": "stomach ulcers", "assay": "anti-ulcer activity, stress ulcer (stress and cold)", "format": "in vivo", "details": "female rats, stress and cold (8° C., two hours), 10 mg/kg through an esophageal tube, 2 hours before stress", "experimental": "(2) Determination of the anti-ulcer activity Stress Ulcer\nThe technique consists of inducing stomach ulcers by stress in rats (stress and cold). The technique used is described by E. C. SENAY and R. J. LEVINE, Proc. Soc. Exp. Biol. 124, 1221 (1967).\nFemale rats of 150 g (5 animals per lot) were used which has been fasting for 48 hours with water ad libitum and glucose solution for 8 hours. Through an esophageal tube, the animals received a test compound, or a solution of 0.5% carboxy methyl cellulose in the case of the control animals. Two hours later, the animals were bundled in a jacket of netting. Their paws were bound and the entire unit was placed in a refrigerator at 8° C. for two hours. The rats were freed and killed by ether.\nTheir stomachs were removed, opened along the greater curvature and examined with a binocular magnifier. The seriousness of the lesions was graded from 1 to 3 for each stomach.\nFor each lot of rats, the average intensity of the ulcerations was calculated. The degree of ulceration for test animals was compared with the control animals for each lot."}}, "data": [{"smiles": "O=C(O)/C=C/C(=O)c1ccccc1", "note": "[Example 1, (E) 4-phenyl-4-oxobuten-2-oic acid]", "values": [{"measurement": "Anti-secretion activity: Acid Concentration (% variation as compared with the controls)", "setting": "[1]", "result": -66, "unit": "%"}, {"measurement": "LD50", "setting": "acute toxicity (LD50)", "result": 250, "unit": "mg/kg"}, {"measurement": "Anti-ulcer activity: Ulceration (% variation as compared with the controls)", "setting": "stomach ulcers", "result": -54, "unit": "%"}]}, {"smiles": "Cc1ccc(C(=O)C=CC(=O)O)cc1", "note": "[Example 2, 4-tolyl-4-oxobuten-2-oic acid]", "values": [{"measurement": "Anti-secretion activity: Acid Concentration (% variation as compared with the controls)", "setting": "[1]", "result": -61, "unit": "%"}, {"measurement": "LD50", "setting": "acute toxicity (LD50)", "result": 250, "unit": "mg/kg"}, {"measurement": "Anti-ulcer activity: Ulceration (% variation as compared with the controls)", "setting": "stomach ulcers", "result": -39, "unit": "%"}]}, {"smiles": "O=C(O)/C=C\\C(=O)c1ccccc1", "note": "[Example 3, (Z) 4-phenyl-4-oxobuten-2-oic acid]", "values": [{"measurement": "Anti-secretion activity: Acid Concentration (% variation as compared with the controls)", "setting": "[1]", "result": -81, "unit": "%"}, {"measurement": "LD50", "setting": "acute toxicity (LD50)", "result": 370, "unit": "mg/kg"}, {"measurement": "Anti-ulcer activity: Ulceration (% variation as compared with the controls)", "setting": "stomach ulcers", "result": -93, "unit": "%"}]}]}
